“Also recorded” adds a separate entry of the source.
How the values were obtained:
[1] = ATP pharmacokinetics: initial ATP release rate from red blood cells into blood plasma, Phase I study; type: in vivo, human
Method: (§1) The solution was administered by continuous intravenous infusions using an Ivac or similar infusion device through venous access in a peripheral vein. If venous access was a problem, either a Hickman catheter or its equivalent, or an Infusaport or its equivalent was inserted to provide vascular access.
(§2) The 50 μg/kg/min dose could be reduced to 25 μg/kg/min if adverse effects occurred. […] Succeeding infusions in that patient were at the infusion dose tolerated at the end of the previous treatment. If adverse events occurred in patients being infused at 25 μg/kg/min, the infusions were terminated and the patient received no additional infusions.

[2] = ATP pharmacokinetics: blood plasma (extracellular) ATP levels, Phase I study; type: in vivo, human; settings: for Initial Extracellular ATP Concentration, Median: ITT
Method: as §1, §2

[3] = Safety and tolerability (NCI CTC version 2 toxicity grades) of ATP infusion, Phase I study; type: in vivo, human
Method: Two of the seven evaluable patients had advanced prostate cancer with bone metastases and one each had advanced mesothelioma, metastatic breast cancer, metastatic melanoma, metastatic colon cancer and renal cell carcinoma.
as §2

[4] = Stability of ATP drug product and infusion solution; type: physicochemical
Method: An example of a clinical procedure in the treatment of individuals in need thereof is as follows. After determination of baseline, pre-treatment vital signs, hemodynamic variables and blood chemistry, an ATP dose escalation procedure is initiated. ATP is provided as a sterile solution in single use vials. […] Storage of the clinical solution is at controlled refrigerated temperature (2° C.-6° C.). […] The concentration of the final sterile solution for the infusion is 8 mg/ml.
See attached AAI International Analytical Testing Report Aug. 2, 2001.

Nc1ncnc2c1ncn2[C@@H]1O[C@H](COP(=O)(O)OP(=O)(O)OP(=O)(O)O)[C@@H](O)[C@H]1O [ATP, adenosine 5′-triphosphate]
Initial ATP Release Rates Mean ([1]; Week 1 (infusion 1), 4 hours into infusion): 33.407 nM/min | Initial ATP Release Rates Mean ([1]; Week 1 (infusion 1), 8 hours (before the end)): 47.224 nM/min | Initial ATP Release Rates Mean ([1]; Week 1 (infusion 1), 8.25 hours): 10.400 nM/min | Initial ATP Release Rates Mean ([1]; Week 1 (infusion 1), 9 hours): 25.408 nM/min | Initial ATP Release Rates Mean ([1]; Week 1 (infusion 1), 10 hours): 13.959 nM/min | Initial ATP Release Rates Mean ([1]; Week 1 (infusion 1), 11 hours): 14.743 nM/min | Initial ATP Release Rates Mean ([1]; Week 1 (infusion 1), 12 hours): 12.565 nM/min | Initial ATP Release Rates Mean ([1]; Week 1 (infusion 1), 14 hours): 12.067 nM/min | Initial ATP Release Rates Mean ([1]; Week 1 (infusion 1), 16 hours): 15.331 nM/min | Initial ATP Release Rates Mean ([1]; Week 1 (infusion 1), 20 hours): 20.063 nM/min | Initial ATP Release Rates Mean ([1]; Week 1 (infusion 1), 24 hours): 17.452 nM/min | Initial ATP Release Rates Mean ([1]; Week 1 (infusion 1), Time 0 (pre-infusion)): 15.469 nM/min | Initial ATP Release Rates Mean ([1]; Week 1 (infusion 1), […]): 41.353 nM/min | Initial ATP Release Rates Mean ([1]; Week 3 (Infusion 3), 4 hours into infusion): 55.414 nM/min | Initial ATP Release Rates Mean ([1]; Week 3 (Infusion 3), 8 hours before the end): 48.283 nM/min | Initial ATP Release Rates Mean ([1]; Week 3 (Infusion 3), 8.25 hours): 13.400 nM/min | Initial ATP Release Rates Mean ([1]; Week 3 (Infusion 3), 9 hours): 34.992 nM/min | Initial ATP Release Rates Mean ([1]; Week 3 (Infusion 3), 10 hours): 27.342 nM/min | Initial ATP Release Rates Mean ([1]; Week 3 (Infusion 3), 11 hours): 18.888 nM/min | Initial ATP Release Rates Mean ([1]; Week 3 (Infusion 3), 12 hours): 14.660 nM/min | Initial ATP Release Rates Mean ([1]; Week 3 (Infusion 3), 14 hours): 10.390 nM/min | Initial ATP Release Rates Mean ([1]; Week 3 (Infusion 3), 16 hours): 10.223 nM/min | Initial ATP Release Rates Mean ([1]; Week 3 (Infusion 3), 20 hours): 11.708 nM/min | Initial ATP Release Rates Mean ([1]; Week 3 (Infusion 3), 24 hours): 15.880 nM/min | Initial ATP Release Rates Mean ([1]; Week 3 (Infusion 3), Time 0 (pre-infusion)): 18.228 nM/min | Initial ATP Release Rates Mean ([1]; Week 3 (Infusion 3), […]): 38.780 nM/min | Initial ATP Release Rates Mean ([1]; Week 8 (infusion 8), 4 hours into infusion): 28.700 nM/min | Initial ATP Release Rates Mean ([1]; Week 8 (infusion 8), 8 hours (before the end)): 27.930 nM/min | Initial ATP Release Rates Mean ([1]; Week 8 (infusion 8), 9 hours): 20.167 nM/min | Initial ATP Release Rates Mean ([1]; Week 8 (infusion 8), 10 hours): 5.803 nM/min | Initial ATP Release Rates Mean ([1]; Week 8 (infusion 8), 11 hours): 15.700 nM/min | Initial ATP Release Rates Mean ([1]; Week 8 (infusion 8), 12 hours): 14.150 nM/min | Initial ATP Release Rates Mean ([1]; Week 8 (infusion 8), 14 hours): 19.620 nM/min | Initial ATP Release Rates Mean ([1]; Week 8 (infusion 8), 16 hours): 11.680 nM/min | Initial ATP Release Rates Mean ([1]; Week 8 (infusion 8), 20 hours): 14.520 nM/min | Initial ATP Release Rates Mean ([1]; Week 8 (infusion 8), 24 hours): 16.200 nM/min | Initial ATP Release Rates Mean ([1]; Week 8 (infusion 8), Time 0 (pre-infusion)): 10.967 nM/min | Initial ATP Release Rates Mean ([1]; Week 8 (infusion 8), […]): 11.267 nM/min | average increases in Initial ATP Release Rates (from Red Blood Cells) ([1]; patients 502-505, time 0 to 8 hours): 200-400% | blood plasma (extracellular) ATP levels ([2]; ATP continuously for eight hours): increases | Initial Extracellular ATP Concentration, Median ([2]; Week 1 (Infusion 1), 4 hours into infusion, N=13): 0.109 µM | Initial Extracellular ATP Concentration, Median ([2]; Week 1 (Infusion 1), 8.25 hours, N=1): 0.141 µM | Initial Extracellular ATP Concentration, Median ([2]; Week 1 (Infusion 1), 9 hours, N=10): 0.150 µM | Initial Extracellular ATP Concentration, Median ([2]; Week 1 (Infusion 1), 10 hours, N=12): 0.091 µM | Initial Extracellular ATP Concentration, Median ([2]; Week 1 (Infusion 1), 11 hours, N=12): 0.062 µM | Initial Extracellular ATP Concentration, Median ([2]; Week 1 (Infusion 1), 12 hours, N=11): 0.044 µM | Initial Extracellular ATP Concentration, Median ([2]; Week 1 (Infusion 1), 14 hours, N=8): 0.029 µM | Initial Extracellular ATP Concentration, Median ([2]; Week 1 (Infusion 1), 16 hours, N=10): 0.050 µM | Initial Extracellular ATP Concentration, Median ([2]; Week 1 (Infusion 1), 20 hours, N=8): 0.052 µM | Initial Extracellular ATP Concentration, Median ([2]; Week 1 (Infusion 1), 24 hours, N=12): 0.079 µM | Initial Extracellular ATP Concentration, Median ([2]; Week 1 (Infusion 1), […], N=10): 0.238 µM | Initial Extracellular ATP Concentration, Median ([2]; Week 3 (Infusion 3), 4 hours into infusion, N=9): 0.200 µM | Initial Extracellular ATP Concentration, Median ([2]; Week 3 (Infusion 3), 8 hours (before the end), N=9): 0.240 µM | Initial Extracellular ATP Concentration, Median ([2]; Week 3 (Infusion 3), 8.25 hours, N=1): 0.055 µM | Initial Extracellular ATP Concentration, Median ([2]; Week 3 (Infusion 3), 9 hours, N=9): 0.170 µM | Initial Extracellular ATP Concentration, Median ([2]; Week 3 (Infusion 3), 10 hours, N=9): 0.060 µM | Initial Extracellular ATP Concentration, Median ([2]; Week 3 (Infusion 3), 11 hours, N=10): 0.060 µM | Initial Extracellular ATP Concentration, Median ([2]; Week 3 (Infusion 3), 12 hours, N=8): 0.065 µM | Initial Extracellular ATP Concentration, Median ([2]; Week 3 (Infusion 3), 14 hours, N=6): 0.032 µM | Initial Extracellular ATP Concentration, Median ([2]; Week 3 (Infusion 3), 16 hours, N=5): 0.040 µM | Initial Extracellular ATP Concentration, Median ([2]; Week 3 (Infusion 3), 20 hours, N=5): 0.070 µM | Initial Extracellular ATP Concentration, Median ([2]; Week 3 (Infusion 3), 24 hours, N=8): 0.044 µM | Initial Extracellular ATP Concentration, Median ([2]; Week 3 (Infusion 3), Time ‘0’ (pre-infusion), N=10): 0.055 µM | Initial Extracellular ATP Concentration, Median ([2]; Week 3 (Infusion 3), […], N=9): 0.200 µM | Initial Extracellular ATP Concentration, Median ([2]; Week 8 (infusion 8), 4 hours into infusion, N=3): 0.390 µM | Initial Extracellular ATP Concentration, Median ([2]; Week 8 (infusion 8), Time ‘0’ (pre-infusion), N=3): 0.080 µM | Lab. Toxicity ([3]; Patient 501): Nil noted | Clin. Toxicity and CTC-Grade ([3]; Patient 501, Ca Colon, 50 & 75 μg/kg/min, Weeks 1&2): I Flushing | Lab. Toxicity ([3]; Patient 502): Nil noted | Clin. Toxicity and CTC-Grade ([3]; Patient 502, Mesothelioma, 50, 75, & 100 μg/kg/min, Weeks 1-8): I Chest D/Dysp; also recorded: I Flushing; also recorded: I Anxiety | Lab. Toxicity: Hb decreased, Grade II ([3]; Patient 503): Hb 8.0 g/dl | Clin. Toxicity and CTC-Grade ([3]; Patient 503, Prostate, 50, 75, & 100 μg/kg/min, Weeks 1-8): II Confusion - | Lab. Toxicity ([3]; Patient 504): Nil noted | Lab. Toxicity ([3]; Patient 505): Nil noted | Clin. Toxicity and CTC-Grade ([3]; Patient 505, Melanoma, 50, 75 & 100 μg/kg/min, Weeks 1-8): I Flushing; also recorded: AVBlock/CHB | Lab. Toxicity: bilirubin and LFT's - disease progression ([3]; Patient 506): Increasing | Clin. Toxicity and CTC-Grade ([3]; Patient 506, Ca Colon, 50 & 75 & 100 μg/kg/min, Weeks 1-6): I Headache | Lab. Toxicity ([3]; Patient 507): Nil noted | Clin. Toxicity and CTC-Grade ([3]; Patient 507, Ca Prostate, 50, 75 & 100 μg/kg/min, Weeks 1-8): I Nasal stuffiness; also recorded: II increasing pain - | Lab. Toxicity ([3]; Patient 508, 50 μg/kg/min, Week 1): Nil noted | clinical toxicities ([3]; Patient 508, first infusion at 50 μg/kg/min): No clinical toxicities were noted | Clin. Toxicity and CTC-Grade ([3]; Patient 509, Renal cell carcinoma, 50, 75 & 100 μg/kg/min, Weeks 1-8): I anxiety; also recorded: I nausea; also recorded: I vomiting | Lab. Toxicity: AST/Alk Phos increase ([3]; Patient 509, at FU): At FU grade I | patients tolerating the maximum allowable dose of 100 μg/kg/min ([3]; continuous 8 hour intravenous infusion, first nine patients): seven of nine | tolerability in terminal patients ([3]; seen in patient 506): well tolerated | 3 month stability data ([4]; 3 months under routine storage conditions): remains stable at 3 months under | 15 months stability testing ([4]; refrigerated ATP (5° C.)): 99.7 % of label | stability of the final ATP solutions ([4]; room temperature, infusion solution 8 mg/ml): at least 96 hours

Reference: patent US20070203091A1, “Methods and therapeutic compositions for improving liver, blood flow and skeletal muscle functions in advanced diseases and aging” (priority 2006, published 2007)
